Tests used:
[1] = tested on: Akt serine 473 (PI3K signaling pathway); experiment: Akt phosphorylation in PBLs exposed to cl-CD95L; format: cell-based, human; settings: peptide pre-incubation
Description: Cells were lyzed for 30 minutes at 4° C. in lysis buffer (25 mM HEPES pH 7.4, 1% v/v Triton X-100, 150 mM NaCl, 2 mM EGTA supplemented with a mix of protease inhibitors (Sigma-Aldrich)). Protein concentration was determined by the bicinchoninic acid method (PIERCE, Rockford, Ill., USA) according to the manufacturer's protocol. Proteins were separated on a 12% SDS-PAGE and transferred to a nitrocellulose membrane (GE Healthcare, Buckinghamshire, England). The membrane was blocked 15 minutes with TBST (50 mM Tris, 160 mM NaCl, 0.05% v/v Tween 20, pH 7.8) containing 5% w/v dried skimmed milk (TBSTM). Primary antibody was incubated overnight at 4° C. in TBSTM. The membrane was intensively washed (TBST) and then the peroxydase-labeled anti-rabbit or anti-mouse (SouthernBiotech, Birmingham, Ala., US) was added for 45 minutes. The proteins were visualized with the enhanced chemiluminescence substrate kit (ECL, GE Healthcare).

[2] = tested on: CD95-mediated Ca^2+ response; experiment: Calcium response to cl-CD95L in activated PBL; format: cell-based, human; settings: activated PBL pre-incubated 1 hr, 10 μM peptide, 100 ng/ml cl-CD95L
Description: Cells were loaded with Fura2-AM (1 μM) at resting temperature for 30 min in Hank's Balanced Salt Solution (HBSS). After washing with HBSS, the cells were incubated for 15 min in the absence of Fura2-AM to complete de-esterification of the dye. Cells were placed in a thermostated chamber (37° C.) of an inverted epifluorescence microscope (Olympus IX70) equipped with a ×40, UApo/340-1.15 W water-immersion objective (Olympus), and fluorescence micrograph images were captured at 510 nm and at 12-bit resolution by a fast-scan camera (CoolSNAP fx Monochrome, Photometrics). To minimize UV light exposure, 4×4 binning function was used. Fura2-AM was alternately excited at 340 and 380 nm, and ratios of the resulting images (excitations at 340 and 380 nm and emission filter at 520 nm) were produced at constant intervals (5 s or 10 s according to the stimulus). […] Fluorescent images were pseudocolored using the IMD display mode in MetaFluor and assembled without further manipulation in Photoshop (Adobe). Raw data were acquired with MetaFluor and graphed in Origin (OriginLab). [Ca^2+]i was calculated using the following equation: [Ca^2+]i=Kd(R−Rmin)/(R−Rmax)×Sf2/Sf1, where Kd is the Fura2-AM dissociation constant at the two excitation wavelengths (F340/F380); Rmin is the fluorescence ratio in the presence of minimal calcium, obtained by chelating Ca^2+ with 10 mM EGTA; Rmax is the fluorescence ratio in the presence of excess calcium, obtained by treating cells with 1 μM ionomycin; Sf2 is the fluorescence of the Ca^2+-free form; and Sf1 is the fluorescence of the Ca^2+-bound form of Fura2-AM at excitation wavelengths of 380 and 340 nm, respectively. In some experiments cells were placed in a Ca^2+-free medium consisting of the HBSS described above in which CaCl2 was omitted and 100 μM EGTA was added in order to chelate residual Ca^2+ ions. This medium was added to the cells just before recording to avoid leak of the intracellular calcium stores.
All cells were purchased from ATCC (Molsheim Cedex, France). T leukemic cell lines CEM, H9 and Jurkat were cultured in RPMI supplemented with 8% heat-inactivated FCS (v/v) and 2 mM L-glutamine at 37° C. in a 5% CO2 incubator. CEM-IRC cell expressing a low amount of plasma membrane CD95 was described in (Beneteau et al., 2007; Beneteau et al., 2008). […]
T cells were loaded with Fura-PE3-AM (1 μM) at room temperature for 30 min in Hank's Balanced Salt Solution (HBSS). […] Cells were placed in the temperature controlled chamber (37° C.) of an inverted epifluorescence microscope (Olympus IX70) equipped with an ×40 UApo/340-1.15 W water-immersion objective (Olympus), and fluorescence micrograph images were captured at 510 nm and 12-bit resolution by a fast-scan camera (CoolSNAP fx Monochrome, Photometrics). […]

[3] = tested on: CD95-mediated Ca^2+ response; experiment: Calcium response to cl-CD95L in MEF; format: cell-based; settings: MEFs pre-incubated 1 hr, 10 μM peptide; 100 ng/ml cl-CD95L
Description: Cells were loaded with Fura2-AM (1 μM) at resting temperature for 30 min in Hank's Balanced Salt Solution (HBSS). After washing with HBSS, the cells were incubated for 15 min in the absence of Fura2-AM to complete de-esterification of the dye. Cells were placed in a thermostated chamber (37° C.) of an inverted epifluorescence microscope (Olympus IX70) equipped with a ×40, UApo/340-1.15 W water-immersion objective (Olympus), and fluorescence micrograph images were captured at 510 nm and at 12-bit resolution by a fast-scan camera (CoolSNAP fx Monochrome, Photometrics). To minimize UV light exposure, 4×4 binning function was used. Fura2-AM was alternately excited at 340 and 380 nm, and ratios of the resulting images (excitations at 340 and 380 nm and emission filter at 520 nm) were produced at constant intervals (5 s or 10 s according to the stimulus). […] Fluorescent images were pseudocolored using the IMD display mode in MetaFluor and assembled without further manipulation in Photoshop (Adobe). Raw data were acquired with MetaFluor and graphed in Origin (OriginLab). […]

TAT-CID: cell penetrating peptide linking the 36-amino acid-stretch of CID (CD95 residues 175 to 210) to the HIV-TAT sequence; SEQ ID NO: 6 (RKKRRQRRRKRKEVQKTCRKHRKENQGSHESPTLNPETVAINLSD; TAT-CID)
Akt phosphorylation at serine 473 [1]: inhibited Akt phosphorylation at its serine 473 | calcium response to cl-CD95L [2]: abrogated the CD95-mediated Ca^2+ response | calcium response to cl-CD95L ([2]; listed as TAT CID 175-210): greatly reduced the calcium response | initial phase of the calcium response to cl-CD95L [3]: blocked it

From patent US10189887B2, “Polypeptides and uses thereof for reducing CD95-mediated cell motility” (INSERM (INSTITUT NATIONAL DE LA SANTÉ ET DE LA RECHERCHE …, priority 2014, dated 2019)
